In paper PMC12722308, “A phase 1 study of orally administered 5-fluoro-2’-deoxycytidine with tetrahydrouridine in patients with refractory solid tumors” (Cancer Chemotherapy and Pharmacology, 2025):
“And” between values parts separate entries of the source, which are not always exact repeats. Identical values can stand only once. Like-named read-outs stand apart in the source and are kept apart here. Marks after values point to notes of the source that are not given here.

Assay: Plasma pharmacokinetics by LC-MS/MS
Type: in vivo, human
Details: for Tmax: read-out: FdCyd Tmax; for Vd/F: read-out: FdCyd Vz/F; for half-life: read-out: FdCyd t½ (converted); for AUC(0-inf): read-out: FdCyd AUC0-inf; for Cmax: read-out: FdCyd Cmax; for FdCyd2h-D2: day 2; for FdCyd2h-D3: day 3
Protocol: Blood specimens for PK analysis were collected on Cycle 1 Day 1 (C1D1) prior to THU administration and then at 15, 30, and 45 min and 1, 2, 3, 4, 5, and 6 h after THU administration, as well as on C1D2 and C1D3 prior to and 2 h after THU administration. Urine specimens for PK analysis were collected on C1D1 prior to treatment and then at every void from 0 to 24 h after THU administration. All specimens for PK analysis were processed and analyzed by LC-MS/MS as described previously, and Phoenix WinNonlin software was used for data analysis.

[1] = All FdCyd doses + THU 3000 mg oral (n=44), geom. mean (geom. SD)
[2] = All FdCyd doses + THU 6000 mg oral (n=11), geom. mean (geom. SD)
[3] = DL1: FdCyd 30 mg + THU 3000 mg oral (n=3), geom. mean (geom. SD)
[4] = DL2: FdCyd 60 mg + THU 3000 mg oral (n=4), geom. mean (geom. SD)
[5] = DL3: FdCyd 90 mg + THU 3000 mg oral (n=3), geom. mean (geom. SD)
[6] = DL4: FdCyd 120 mg + THU 3000 mg oral (n=3), geom. mean (geom. SD)
[7] = DL5-9: FdCyd 160 mg + THU 3000 mg oral (n=31), geom. mean (geom. SD)
[8] = DL10: FdCyd 60 mg + THU 6000 mg oral (n=8), geom. mean (geom. SD)
[9] = DL11: FdCyd 80 mg + THU 6000 mg oral (n=3), geom. mean (geom. SD)
[10] = Total, all dose levels (n=55), geom. mean (geom. SD)
[11] = human, plasma, oral, Total, all dose levels (n=55), geom. mean (geom. SD)
[12] = human, plasma, po, All FdCyd doses + THU 3000 mg oral (n=44), geom. mean (geom. SD)
[13] = human, plasma, po, All FdCyd doses + THU 6000 mg oral (n=11), geom. mean (geom. SD)
[14] = human, plasma, po, DL1: FdCyd 30 mg + THU 3000 mg oral (n=3), geom. mean (geom. SD)
[15] = human, plasma, po, DL2: FdCyd 60 mg + THU 3000 mg oral (n=4), geom. mean (geom. SD)
[16] = human, plasma, po, DL3: FdCyd 90 mg + THU 3000 mg oral (n=3), geom. mean (geom. SD)
[17] = human, plasma, po, DL4: FdCyd 120 mg + THU 3000 mg oral (n=3), geom. mean (geom. SD)
[18] = human, plasma, po, DL5-9: FdCyd 160 mg + THU 3000 mg oral (n=31), geom. mean (geom. SD)
[19] = human, plasma, po, DL10: FdCyd 60 mg + THU 6000 mg oral (n=8), geom. mean (geom. SD)
[20] = human, plasma, po, DL11: FdCyd 80 mg + THU 6000 mg oral (n=3), geom. mean (geom. SD)
[21] = plasma FdCyd at 2 h, DL1: FdCyd 30 mg + THU 3000 mg oral (n=3), geom. mean (geom. SD)
[22] = plasma FdCyd at 2 h, DL2: FdCyd 60 mg + THU 3000 mg oral (n=4), geom. mean (geom. SD)
[23] = plasma FdCyd at 2 h, DL3: FdCyd 90 mg + THU 3000 mg oral (n=3), geom. mean (geom. SD)
[24] = plasma FdCyd at 2 h, DL4: FdCyd 120 mg + THU 3000 mg oral (n=3), geom. mean (geom. SD)
[25] = plasma FdCyd at 2 h, DL5-9: FdCyd 160 mg + THU 3000 mg oral (n=31), geom. mean (geom. SD)
[26] = plasma FdCyd at 2 h, DL10: FdCyd 60 mg + THU 6000 mg oral (n=8), geom. mean (geom. SD)
[27] = plasma FdCyd at 2 h, DL11: FdCyd 80 mg + THU 6000 mg oral (n=3), geom. mean (geom. SD)

Structure (SMILES): Nc1nc(=O)n([C@H]2C[C@H](O)[C@@H](CO)O2)cc1F [FdCyd, 5-fluoro-2’-deoxycytidine]
- FdCyd Cl/F [1]: 123 L/h and 123 (2.37)^c L/h
- FdCyd Cmax/Dose [1]: 4.0 (2.2)^b µg/L / mg
- FdCyd Cl/F [2]: 85.7 (1.65)^c L/h
- FdCyd Cmax/Dose [2]: 6.6 (1.6)^b µg/L / mg
- FdCyd Cl/F [3]: 212 (2.77) L/h
- FdCyd Cmax/Dose [3]: 3.0 (2.3) µg/L / mg
- FdCyd Cl/F [4]: 95.7 (3.08) L/h
- FdCyd Cmax/Dose [4]: 4.9 (3.0) µg/L / mg
- FdCyd Cl/F [5]: 84.7 (1.91) L/h
- FdCyd Cmax/Dose [5]: 5.8 (1.8) µg/L / mg
- FdCyd AUC0-inf [6]: 1.59 (2.43) mg/L•h
- FdCyd Cl/F [6]: 75.6 (2.43) L/h
- FdCyd Cmax/Dose [6]: 7.4 (2.0) µg/L / mg
- FdCyd Cl/F [7]: 133 (2.35) L/h
- FdCyd Cmax/Dose [7]: 3.6 (2.1) µg/L / mg
- FdCyd Cl/F [8]: 96.0 (1.71) L/h
- FdCyd Cmax/Dose [8]: 6.4 (1.6) µg/L / mg
- FdCyd Cl/F [9]: 65.8 (1.41) L/h
- FdCyd Cmax/Dose [9]: 7.1 (1.6) µg/L / mg
- FdCyd Cl/F [10]: 115 (2.26) L/h
- FdCyd Cmax/Dose [10]: 4.4 (2.1) µg/L / mg
- FdCyd peak concentrations at the oral RP2D (160 mg) relative to those after the IV FdCyd RP2D of 100 mg/m^2 (comparison with ref 8): approximately 20%
- Tmax [11]: ~72 min
- Vd/F [11]: 98 L
- bioavailability (human, plasma, oral, from previous clearance (142 mL/min/m^2) vs current Cl/F (123 L/h), read-out: FdCyd bioavailability in the current study): ~12%
- Tmax [12]: 78 min
- Vd/F [12]: 111 L
- half-life [12]: 36 min
- Tmax [13]: 54 min
- Vd/F [13]: 56 L
- half-life [13]: 30 min
- AUC(0-inf) [14]: 140 ng·h/mL
- Cmax [14]: 90 ng/mL
- Tmax [14]: 54 min
- Vd/F [14]: 187 L
- half-life [14]: 36 min
- AUC(0-inf) [15]: 630 ng·h/mL
- Cmax [15]: 290 ng/mL
- Tmax [15]: 60 min
- Vd/F [15]: 90 L
- half-life [15]: 42 min
- AUC(0-inf) [16]: 1060 ng·h/mL
- Cmax [16]: 530 ng/mL
- Tmax [16]: 90 min
- Vd/F [16]: 139 L
- half-life [16]: 66 min
- Cmax [17]: 890 ng/mL
- Tmax [17]: 72 min
- Vd/F [17]: 62 L
- half-life [17]: 36 min
- AUC(0-inf) [18]: 1200 ng·h/mL
- Cmax [18]: 580 ng/mL
- Tmax [18]: 84 min
- Vd/F [18]: 114 L
- half-life [18]: 36 min
- AUC(0-inf) [19]: 630 ng·h/mL
- Cmax [19]: 380 ng/mL
- Tmax [19]: 48 min
- Vd/F [19]: 63 L
- half-life [19]: 30 min
- AUC(0-inf) [20]: 1220 ng·h/mL
- Cmax [20]: 570 ng/mL
- Tmax [20]: 90 min
- Vd/F [20]: 44 L
- half-life [20]: 30 min
- concentration at 2 h (human, plasma FdCyd at 2 h, day 1, DL10: FdCyd 60 mg + THU 6000 mg oral (n=8), geom. mean (geom. SD), read-out: FdCyd2h-D1): 317 ng/mL
- Relationship between week 1 cumulative FdCyd exposure and occurrence of DLT (in vivo): no statistically significant relationship
- FdCyd dose from which the target Cmax of 1 µM (245 ng/mL) was reached by individual patients (oral FdCyd with THU): ≥ 60 mg
- FdCyd2h-D1 (plasma FdCyd at 2 h, day 1, DL2: FdCyd 60 mg + THU 3000 mg oral (n=4), geom. mean (geom. SD)): 0.203 (3.87) mg/L
- FdCyd2h-D1 (plasma FdCyd at 2 h, day 1, DL3: FdCyd 90 mg + THU 3000 mg oral (n=3), geom. mean (geom. SD)): 0.525 (1.79) mg/L
- FdCyd2h-D1 (plasma FdCyd at 2 h, day 1, DL4: FdCyd 120 mg + THU 3000 mg oral (n=3), geom. mean (geom. SD)): 0.611 (3.17) mg/L
- FdCyd2h-D1 (plasma FdCyd at 2 h, day 1, DL5-9: FdCyd 160 mg + THU 3000 mg oral (n=31), geom. mean (geom. SD)): 0.505 (1.92) mg/L
- FdCyd2h-D1 (plasma FdCyd at 2 h, day 1, DL11: FdCyd 80 mg + THU 6000 mg oral (n=3), geom. mean (geom. SD)): 0.571 (1.64) mg/L
- FdCyd2h-D2 [21]: 0.076 (3.80) mg/L
- FdCyd2h-D2 [22]: 0.169 (3.80) mg/L
- FdCyd2h-D2 [23]: 0.449 (1.55) mg/L
- FdCyd2h-D2 [24]: 0.499 (9.47) mg/L
- FdCyd2h-D2 [25]: 0.595 (3.29) mg/L
- FdCyd2h-D2 [26]: 0.559 (1.63) mg/L
- FdCyd2h-D2 [27]: 0.931 (1.99) mg/L
- FdCyd2h-D3 [21]: 0.042 (2.6) mg/L
- FdCyd2h-D3 [22]: 0.145 (1.14) mg/L
- FdCyd2h-D3 [23]: 0.460 (2.89) mg/L
- FdCyd2h-D3 [24]: 0.891 (2.08) mg/L
- FdCyd2h-D3 [25]: 0.650 (1.98) mg/L
- FdCyd2h-D3 [26]: 0.584 (1.60) mg/L
- FdCyd2h-D3 [27]: 0.745 (2.48) mg/L
